Measurements published in the NIST ThermoML archive (doi:10.1016/j.jct.2007.05.005).
Several values for one entry are separate records, joined by “and”; a condition that tells them apart may be missing. Equal entries are not always repeated. ± gives the expanded uncertainty stated by the source.

Legend:
[1] = 101.3 kPa, Liquid; for speed of sound: Sing-around technique in a fixed-path interferometer
[2] = xn = mol fraction of the nth substance listed; settings: 101.3 kPa, Liquid, x2 = 0; for speed of sound: Sing-around technique in a fixed-path interferometer

CC(C)CC(C)(C)C [2,2,4-trimethylpentane]
[1]
Settings	mass density [kg/m3]	speed of sound [m/s]
288.15 K	695.948 ± 1.2	1124.3 ± 2.2
298.15 K	687.749 ± 1.2	1082.2 ± 2.2
323.15 K	666.832 ± 1.3	979.25 ± 2.2

CC(C)CC(C)(C)C [2,2,4-trimethylpentane] + CCOC(C)(C)C
[2]
Settings	mass density [kg/m3]	speed of sound [m/s]
288.15 K	695.948 ± 1.2	1124.3 ± 2.2
298.15 K	687.749 ± 1.2	1082.2 ± 2.2
323.15 K	666.832 ± 1.3	979.25 ± 2.2

CCOC(C)(C)C [2-ethoxy-2-methylpropane]
[1]
Settings	mass density	speed of sound
288.15 K	745.656 ± 1.1 kg/m3 and 744.955 ± 1.1 kg/m3	1078.9 ± 2.2 m/s and 1076.4 ± 2.2 m/s
298.15 K	735.357 ± 1.1 kg/m3 and 734.806 ± 1.1 kg/m3	1033.2 ± 2.2 m/s and 1031 ± 2.2 m/s
303.15 K	730.186 ± 1.1 kg/m3	1010.2 ± 2.2 m/s
313.15 K	719.687 ± 1.2 kg/m3	965.87 ± 2.2 m/s
323.15 K	709.007 ± 1.2 kg/m3 and 708.642 ± 1.2 kg/m3 and 708.996 ± 1.2 kg/m3	922.48 ± 2.2 m/s and 920.73 ± 2.2 m/s and 922.08 ± 2.2 m/s

CC(C)(C)O [2-methylpropan-2-ol]
[1]
Settings	mass density [kg/m3]	speed of sound [m/s]
303.15 K	775.028 ± 0.98	1098.2 ± 2.2
313.15 K	764.554 ± 1	1055.4 ± 2.2
323.15 K	753.679 ± 1	1013 ± 2.2

CC(C)(C)O [2-methylpropan-2-ol] + CCOC(C)(C)C
[2]
Settings	mass density [kg/m3]	speed of sound [m/s]
303.15 K	775.028 ± 0.98	1098.2 ± 2.2
313.15 K	764.554 ± 1	1055.4 ± 2.2
323.15 K	753.679 ± 1	1013 ± 2.2

c1ccccc1 [benzene]
[1]
Settings	mass density [kg/m3]	speed of sound [m/s]
288.15 K	884.183 ± 0.65	1345.5 ± 2.2
298.15 K	873.52 ± 0.68	1298.3 ± 2.2
323.15 K	846.641 ± 0.77	1184.6 ± 2.2

c1ccccc1 [benzene] + CCOC(C)(C)C
[2]
Settings	mass density [kg/m3]	speed of sound [m/s]
288.15 K	884.183 ± 0.65	1345.5 ± 2.2
298.15 K	873.52 ± 0.68	1298.3 ± 2.2
323.15 K	846.641 ± 0.77	1184.6 ± 2.2

CCO [ethanol]
[1]
Settings	mass density [kg/m3]	speed of sound [m/s]
288.15 K	793.644 ± 0.93	1177.3 ± 2.2
298.15 K	785.082 ± 0.95	1142.4 ± 2.2
323.15 K	763.177 ± 1	1059.3 ± 2.1

CCO [ethanol] + CCOC(C)(C)C
[2]
Settings	mass density [kg/m3]	speed of sound [m/s]
288.15 K	793.644 ± 0.93	1177.3 ± 2.2
298.15 K	785.082 ± 0.95	1142.4 ± 2.2
323.15 K	763.177 ± 1	1059.3 ± 2.1

CCc1ccccc1 [ethylbenzene]
[1]
Settings	mass density [kg/m3]	speed of sound [m/s]
288.15 K	870.736 ± 0.69	1359.1 ± 2.2
298.15 K	862.068 ± 0.72	1316.2 ± 2.2
323.15 K	840.054 ± 0.78	1213.6 ± 2.2

CCc1ccccc1 [ethylbenzene] + CCOC(C)(C)C
[2]
Settings	mass density [kg/m3]	speed of sound [m/s]
288.15 K	870.736 ± 0.69	1359.1 ± 2.2
298.15 K	862.068 ± 0.72	1316.2 ± 2.2
323.15 K	840.054 ± 0.78	1213.6 ± 2.2

Cc1ccccc1 [toluene]
[1]
Settings	mass density [kg/m3]	speed of sound [m/s]
288.15 K	871.457 ± 0.69	1347.5 ± 2.2
298.15 K	862.173 ± 0.72	1303.4 ± 2.2
323.15 K	838.706 ± 0.79	1196.6 ± 2.2

Cc1ccccc1 [toluene] + CCOC(C)(C)C
[2]
Settings	mass density [kg/m3]	speed of sound [m/s]
288.15 K	871.457 ± 0.69	1347.5 ± 2.2
298.15 K	862.173 ± 0.72	1303.4 ± 2.2
323.15 K	838.706 ± 0.79	1196.6 ± 2.2
